{"source": "patent US10039747B2", "about": "“Tetrahydrocyclopentapyrrole derivatives and a method for preparing the same” (Daewoong Pharmaceutical Co., Ltd., priority 2013, dated 2018)"}
{"biological_target": "T1, H+/K+-ATPase (Sus scrofa, UniProt P19156)", "T1 construct": "reaction buffer solution (60 mmol/l Tris-HCl buffer solution, pH 7.4) containing hog gastric vesicle; from tissue; host or cells: hog stomach (gastric vesicles, by centrifugation after Rabon et al. 1988)", "T1 sequence (P19156 2-1034 limits assumed)": "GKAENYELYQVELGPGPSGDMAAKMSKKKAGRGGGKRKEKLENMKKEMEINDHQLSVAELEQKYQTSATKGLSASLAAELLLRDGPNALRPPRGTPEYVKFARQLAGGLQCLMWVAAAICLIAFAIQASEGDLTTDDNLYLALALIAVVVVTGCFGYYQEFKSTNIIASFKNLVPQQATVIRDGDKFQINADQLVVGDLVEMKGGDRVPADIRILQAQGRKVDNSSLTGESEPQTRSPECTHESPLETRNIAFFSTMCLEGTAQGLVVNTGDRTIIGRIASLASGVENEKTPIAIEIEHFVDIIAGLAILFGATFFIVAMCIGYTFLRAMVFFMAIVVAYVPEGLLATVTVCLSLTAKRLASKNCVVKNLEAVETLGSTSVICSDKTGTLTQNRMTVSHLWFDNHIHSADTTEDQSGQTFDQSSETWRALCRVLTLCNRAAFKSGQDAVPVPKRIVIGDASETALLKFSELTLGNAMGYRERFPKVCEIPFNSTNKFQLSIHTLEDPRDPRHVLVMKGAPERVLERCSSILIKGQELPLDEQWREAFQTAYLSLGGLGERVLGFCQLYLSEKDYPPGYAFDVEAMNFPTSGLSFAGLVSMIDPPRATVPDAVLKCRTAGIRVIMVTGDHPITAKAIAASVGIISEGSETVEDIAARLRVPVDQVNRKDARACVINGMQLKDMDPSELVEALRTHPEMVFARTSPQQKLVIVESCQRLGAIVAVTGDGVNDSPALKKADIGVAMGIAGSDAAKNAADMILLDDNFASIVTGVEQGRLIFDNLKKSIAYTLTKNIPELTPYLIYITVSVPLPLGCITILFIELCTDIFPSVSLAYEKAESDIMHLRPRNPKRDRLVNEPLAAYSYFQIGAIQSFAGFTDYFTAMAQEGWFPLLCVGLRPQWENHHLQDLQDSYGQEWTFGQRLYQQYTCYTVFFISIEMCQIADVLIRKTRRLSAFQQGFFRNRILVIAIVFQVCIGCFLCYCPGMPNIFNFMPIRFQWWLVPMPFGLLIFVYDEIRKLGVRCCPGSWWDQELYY", "T1 sequence (P18434 whole entry partner)": "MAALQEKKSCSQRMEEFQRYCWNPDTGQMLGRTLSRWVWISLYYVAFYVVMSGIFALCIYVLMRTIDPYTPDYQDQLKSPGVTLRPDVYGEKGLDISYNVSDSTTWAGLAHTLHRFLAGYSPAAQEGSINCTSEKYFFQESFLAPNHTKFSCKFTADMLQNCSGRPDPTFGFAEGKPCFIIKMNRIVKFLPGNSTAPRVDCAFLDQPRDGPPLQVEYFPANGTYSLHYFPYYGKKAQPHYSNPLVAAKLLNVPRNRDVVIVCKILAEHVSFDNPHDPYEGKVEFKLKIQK", "assay": "Inhibition of proton pump (H+/K+-ATPase) activity in hog gastric vesicles", "format": "biochemical", "details": "K+ specific H+/K+-ATPase activity, pH 7.4, 37° C. for 40 minutes, malachite green", "procedure": "1) Preparation of Gastric Vesicles\nGastric vesicles were prepared from hog stomach by centrifugation (Edd C. Rabon et al., Preparation of Gastric H^+,K^+-ATPase, Methods in enzymology, vol. 157 Academic Press Inc., (1988), pp. 649-654). The protein contents of the prepared gastric vesicles were quantified with a Bicinchoninic Acid (BCA) kit.\n2) Measurement of Effect of Inhibiting Proton Pump (H^+/K^+-ATPase) Activity\nThe effect of inhibiting proton pump activity by the compound of the present invention was measured in a 96-well plate. In this experiment, K^+ specific H^+/K^+-ATPase activity was calculated based on the difference between H^+/K^+-ATPase activity in the presence of K^+ ions and H^+/K^+-ATPase activity in the absence of K^+ ions. In the 96-well plate, to negative and positive control groups, 0.5% dimethylsulfoxide (DMSO) in buffer was added, and to the test groups, the compound of the present invention was added. All the analyses were conducted at room temperature with the reaction volume of 100 μl. To a reaction buffer solution (60 mmol/l Tris-HCl buffer solution, pH 7.4) containing hog gastric vesicle, DMSO and each concentration of compound were added, and then, 10 μl of a 10 mmol/l adenosine triphosphate tris buffer solution (60 mmol/l Tris-HCl buffer solution, pH 7.4) was added to initiate an enzyme reaction. The enzyme reaction was conducted at 37° C. for 40 minutes, 50 μl of a malachite green solution (0.12% malachite green solution, 5.8% ammonium molybdate and 11% tween 20 were mixed at a ratio of 100:67:2 in 6.2 N sulfuric acid) was added to stop the reaction, and 50 μl of 15.1% sodium citrate was added. During the reaction, the amount of monophosphate (Pi) was measured at 570 nm using micro plate reader (FLUOstar Omega, BMG Company). Inhibition rate (%) was measured from the activity values of the control groups and the activity values of various concentrations of the test compound, and IC50 of the test compound was calculated from each % inhibition value of the compound using Logistic 4-parameter function of Sigmaplot 8.0 program.", "units": {"IC50": "nM"}}
{"molecule": "CNC1CCc2c1cn(S(=O)(=O)c1cccc(Cl)c1)c2-c1ccc(N2CCOCC2)nc1", "note": "(stereo not drawn) [Example 41, 2-((3-chlorophenyl)sulfonyl)-N-methyl-1-(6-morpholinopyridin-3-yl)-2,4,5,6-tetrahydrocyclopenta[c]pyrrol-4-amine]", "IC50": 3880}
{"molecule": "CNC1CCc2c1cn(S(=O)(=O)c1c(Cl)cc(C(F)(F)F)cc1Cl)c2-c1ccccc1F", "note": "(stereo not drawn) [Example 86, 2-((2,6-dichloro-4-(trifluoromethyl)phenyl)sulfonyl)-1-(2-fluorophenyl)-N-methyl-2,4,5,6-tetrahydrocyclopenta[c]pyrrol-4-amine]", "IC50": 5950}
{"molecule": "CNC1CCCc2c1cn(S(=O)(=O)c1cccc(OC)c1)c2-c1ccccc1F", "note": "(stereo not drawn) [Example 122, 1-(2-fluorophenyl)-2-((3-methoxyphenyl)sulfonyl)-N-methyl-4,5,6,7-tetrahydro-2H-isoindole-4-amine]", "IC50": 1500}
{"molecule": "CNC1CCc2c1cn(S(=O)(=O)c1cccc(Cl)c1)c2-c1ccc(Cl)cc1F", "note": "(stereo not drawn) [Example 20, 1-(4-chloro-2-fluorophenyl)-2-((3-chlorophenyl)sulfonyl)-N-methyl-2,4,5,6-tetrahydrocyclopenta[c]pyrrol-4-amine]", "IC50": 540}
{"molecule": "CNC1CCc2c1cn(S(=O)(=O)c1cccc(F)c1)c2-c1ccc(C)cc1F", "note": "(stereo not drawn) [Example 47, 1-(2-fluoro-4-methylphenyl)-2-((3-fluorophenyl)sulfonyl)-N-methyl-2,4,5,6-tetrahydrocyclopenta[c]pyrrol-4-amine]", "IC50": 470}
{"molecule": "CNC1CCc2c1cn(S(=O)(=O)c1cccnc1)c2-c1ccc(C)cc1F", "note": "(stereo not drawn) [Example 90, 1-(2-fluoro-4-methylphenyl)-N-methyl-2-(pyridin-3-ylsulfonyl)-2,4,5,6-tetrahydrocyclopenta[c]pyrrol-4-amine]", "IC50": 520}
{"molecule": "CNC1CCCCc2c1cn(S(=O)(=O)c1cccnc1)c2-c1ccccc1F", "note": "(stereo not drawn) [Example 146, 1-(2-fluorophenyl)-N-methyl-2-(pyridin-3-ylsulfonyl)-2,4,5,6,7,8-hexahydrocyclohepta[c]pyrrol-4-amine]", "IC50": 4500}
{"molecule": "CNC1CCCc2c1cn(S(=O)(=O)c1cccnc1)c2-c1ccccc1F", "note": "(stereo not drawn) [Example 131, 1-(2-fluorophenyl)-N-methyl-2-(pyridin-3-ylsulfonyl)-4,5,6,7-tetrahydro-2H-isoindole-4-amine]", "IC50": 1500}
{"molecule": "CNC1CCc2c1cn(S(=O)(=O)c1cccc(Cl)c1)c2-c1cc(Cl)ccc1Cl", "note": "(stereo not drawn) [Example 23, 2-((3-chlorophenyl)sulfonyl)-1-(2,5-dichlorophenyl)-N-methyl-2,4,5,6-tetrahydrocyclopenta[c]pyrrol-4-amine]", "IC50": 410}
{"molecule": "CNC1CCc2c1cn(S(=O)(=O)c1ccc(C)nc1Cl)c2-c1ccccc1F", "note": "(stereo not drawn) [Example 99, 2-((2-chloro-6-methylpyridin-3-yl)sulfonyl)-1-(2-fluorophenyl)-N-methyl-2,4,5,6-tetrahydrocyclopenta[c]pyrrol-4-amine]", "IC50": 6780}
{"molecule": "CNC1CCc2c1cn(S(=O)(=O)c1c(Cl)cccc1Cl)c2-c1ccccc1F", "note": "(stereo not drawn) [Example 75, 2-((2,6-dichlorophenyl)sulfonyl)-1-(2-fluorophenyl)-N-methyl-2,4,5,6-tetrahydrocyclopenta[c]pyrrol-4-amine]", "IC50": 2140}
{"molecule": "CNC1CCc2c1cn(S(=O)(=O)c1cccnc1)c2-c1ccccc1Cl", "note": "(stereo not drawn) [Example 89, 1-(2-chlorophenyl)-N-methyl-2-(pyridin-3-ylsulfonyl)-2,4,5,6-tetrahydrocyclopenta[c]pyrrol-4-amine]", "IC50": 1190}
{"molecule": "CNC1CCc2c1cn(S(=O)(=O)c1cccc(Cl)c1)c2-c1cccc(F)c1", "note": "(stereo not drawn) [Example 9, 2-((3-chlorophenyl)sulfonyl)-1-(3-fluorophenyl)-N-methyl-2,4,5,6-tetrahydrocyclopenta[c]pyrrol-4-amine]", "IC50": 830}
{"molecule": "CNC1CCc2c1cn(S(=O)(=O)c1cccc(Cl)c1)c2-c1ccoc1", "note": "(stereo not drawn) [Example 31, 2-((3-chlorophenyl)sulfonyl)-1-(furan-3-yl)-N-methyl-2,4,5,6-tetrahydrocyclopenta[c]pyrrol-4-amine]", "IC50": 1340}
{"molecule": "CNC1CCc2c1cn(S(=O)(=O)c1cccnc1)c2-c1cc(Cl)ccc1Cl", "note": "(stereo not drawn) [Example 92, 1-(2,5-dichlorophenyl)-N-methyl-2-(pyridin-3-ylsulfonyl)-2,4,5,6-tetrahydrocyclopenta[c]pyrrol-4-amine]", "IC50": 350}
{"molecule": "CNC1CCc2c1cn(S(=O)(=O)c1cccc(Cl)c1)c2C", "note": "(stereo not drawn) [Example 2, 2-((3-chlorophenyl)sulfonyl)-N,1-dimethyl-2,4,5,6-tetrahydrocyclopenta[c]pyrrol-4-amine]", "IC50": 10000}
{"molecule": "CNC1CCc2c1cn(S(=O)(=O)c1cnc3c(c1)c(C)nn3C)c2-c1ccccc1F", "note": "(stereo not drawn) [Example 102, 2-((1,3-dimethyl-1H-pyrazolo[3,4-b]pyridin-5-yl)sulfonyl)-1-(2-fluorophenyl)-N-methyl-2,4,5,6-tetrahydrocyclopenta[c]pyrrol-4-amine]", "IC50": 10000}
{"molecule": "CNC1CCc2c1cn(S(=O)(=O)c1cc(Cl)cc(Cl)c1)c2-c1ccccc1F", "note": "(stereo not drawn) [Example 77, 2-((3,5-dichlorophenyl)sulfonyl)-1-(2-fluorophenyl)-N-methyl-2,4,5,6-tetrahydrocyclopenta[c]pyrrol-4-amine]", "IC50": 410}
{"molecule": "CNC1CCc2c1cn(S(=O)(=O)c1ccccc1)c2-c1cc(Cl)ccc1Cl", "note": "(stereo not drawn) [Example 45, 1-(2,5-dichlorophenyl)-N-methyl-2-(phenylsulfonyl)-2,4,5,6-tetrahydrocyclopenta[c]pyrrol-4-amine]", "IC50": 550}
{"molecule": "CNC1CCc2c1cn(S(=O)(=O)c1cccc(Cl)c1)c2-c1ccc(C(F)(F)F)cc1", "note": "(stereo not drawn) [Example 16, 2-((3-chlorophenyl)sulfonyl)-N-methyl-1-(4-(trifluoromethyl)phenyl)-2,4,5,6-tetrahydrocyclopenta[c]pyrrol-4-amine]", "IC50": 970}
{"molecule": "CNC1CCCc2c1cn(S(=O)(=O)c1cccc(OC(F)F)c1)c2-c1ccccc1F", "note": "(stereo not drawn) [Example 123, 2-((3-(difluoromethoxy)phenyl)sulfonyl)-1-(2-fluorophenyl)-N-methyl-4,5,6,7-tetrahydro-2H-isoindole-4-amine]", "IC50": 2000}
{"molecule": "CNC1CCc2c1cn(S(=O)(=O)c1ccccc1Cl)c2-c1ccc(F)cc1C", "note": "(stereo not drawn) [Example 49, 2-((2-chlorophenyl)sulfonyl)-1-(4-fluoro-2-methylphenyl)-N-methyl-2,4,5,6-tetrahydrocyclopenta[c]pyrrol-4-amine]", "IC50": 2170}
{"molecule": "CNC1CCc2c1cn(S(=O)(=O)c1cccc(Cl)c1)c2-c1ccccc1C1CC=CC1", "note": "(stereo not drawn) [Example 6, 2-((3-chlorophenyl)sulfonyl)-1-(2-(cyclopent-3-en-1-yl)phenyl)-N-methyl-2,4,5,6-tetrahydrocyclopenta[c]pyrrol-4-amine]", "IC50": 1320}
{"molecule": "CNC1CCc2c1cn(S(=O)(=O)c1cccc(N(C)C)c1)c2-c1ccccc1F", "note": "(stereo not drawn) [Example 56, 2-((3-(dimethylamino)phenyl)sulfonyl)-1-(2-fluorophenyl)-N-methyl-2,4,5,6-tetrahydrocyclopenta[c]pyrrol-4-amine]", "IC50": 1720}
{"molecule": "CN(C)C1CCCc2c1cn(S(=O)(=O)c1cccc(Cl)c1)c2-c1ccccc1F", "note": "(stereo not drawn) [Example 138, 2-((3-chlorophenyl)sulfonyl)-1-(2-fluorophenyl)-N,N-dimethyl-4,5,6,7-tetrahydro-2H-isoindole-4-amine]", "IC50": 7100}
{"molecule": "CNC1CCc2c1cn(S(=O)(=O)c1cccc(OC)c1)c2-c1ccc(C)cc1F", "note": "(stereo not drawn) [Example 54, 1-(2-fluoro-4-methylphenyl)-2-((3-methoxyphenyl)sulfonyl)-N-methyl-2,4,5,6-tetrahydrocyclopenta[c]pyrrol-4-amine]", "IC50": 410}
{"molecule": "CNC1CCc2c1cn(S(=O)(=O)c1cccc(Cl)c1)c2-c1ccc(OC)cc1", "note": "(stereo not drawn) [Example 14, 2-((3-chlorophenyl)sulfonyl)-1-(4-methoxyphenyl)-N-methyl-2,4,5,6-tetrahydrocyclopenta[c]pyrrol-4-amine]", "IC50": 1260}
{"molecule": "CNC1CCCc2c1cn(S(=O)(=O)c1cccc(C(F)(F)F)c1)c2-c1ccccc1F", "note": "(stereo not drawn) [Example 124, 1-(2-fluorophenyl)-N-methyl-2-((3-(trifluoromethyl)phenyl)sulfonyl)-4,5,6,7-tetrahydro-2H-isoindole-4-amine]", "IC50": 4180}
{"molecule": "CNC1CCCc2c1cn(S(=O)(=O)c1cc(Cl)ccc1F)c2-c1ccccc1F", "note": "(stereo not drawn) [Example 126, 2-((5-chloro-2-fluorophenyl)sulfonyl)-1-(2-fluorophenyl)-N-methyl-4,5,6,7-tetrahydro-2H-isoindole-4-amine]", "IC50": 4000}
{"molecule": "CNC1CCCCc2c1cn(S(=O)(=O)c1cccc(Cl)c1)c2-c1ccccc1F", "note": "(stereo not drawn) [Example 145, 2-((3-chlorophenyl)sulfonyl)-1-(2-fluorophenyl)-N-methyl-2,4,5,6,7,8-hexahydrocyclohepta[c]pyrrol-4-amine]", "IC50": 2200}
